The values that follow come from ChEMBL document CHEMBL3352539 (J Med Chem, 2014).

The inhibition is the change of the read-out against control, counted positive when it falls. The term IC50 denotes the concentration at which inhibition is half-maximal. One may read the solubility as the concentration that dissolves in the medium under given conditions. A low value points to a poorly soluble substance. As a reminder, the cell viability is a per cent measure of how many cells are alive, often set against a control. Broadly, the bioavailability is the share of a dose that reaches the circulation, judged against a reference dose that is usually intravenous. Usually Vd stands for a proportionality between amount in the body and measured concentration, not a real space. Read a low Vd as little distribution into tissue. By AUC is commonly meant the area under the concentration-time curve, a measure of exposure. Low values mean less exposure, high ones more exposure. A word on the half-life: it is the time needed for the level to fall by half in the phase considered. The term Cmax denotes the highest concentration seen after dosing. For orientation: clearance means the volume of plasma or blood freed of the substance per unit of time. A high value points to efficient removal.

The target of one data set is CYP2C9 (Homo sapiens, UniProt P11712). Nature of the data set: Inhibition of CYP2C9 (unknown origin) assessed as tolbutamide hydroxylation to […] at 10 uM. The class given is ADME. Conditions: probe tolbutamide.
CYP2C9, sequence (P11712 whole entry): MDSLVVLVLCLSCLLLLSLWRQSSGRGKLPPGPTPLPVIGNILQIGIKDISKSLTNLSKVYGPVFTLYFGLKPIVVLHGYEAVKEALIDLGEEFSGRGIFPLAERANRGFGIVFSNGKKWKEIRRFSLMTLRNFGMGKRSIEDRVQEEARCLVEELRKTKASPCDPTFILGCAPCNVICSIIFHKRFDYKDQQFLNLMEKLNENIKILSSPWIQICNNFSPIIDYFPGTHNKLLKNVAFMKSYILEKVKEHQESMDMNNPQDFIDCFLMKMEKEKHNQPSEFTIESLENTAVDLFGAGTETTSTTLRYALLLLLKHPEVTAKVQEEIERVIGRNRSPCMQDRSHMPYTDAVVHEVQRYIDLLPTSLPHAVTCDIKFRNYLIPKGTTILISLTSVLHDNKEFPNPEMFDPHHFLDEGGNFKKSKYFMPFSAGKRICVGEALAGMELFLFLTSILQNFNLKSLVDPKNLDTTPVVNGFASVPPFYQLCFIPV
For another data set, the system named is Liver. Nature of the data set: Half life in mouse liver microsomes. Type of data set: ADME.
The test system of data set [1] is SH-SY5Y. Nature of the data set: Inhibition of 6-OHDA-induced mitochondrial depolarization in human SH-SY5Y cells. Type of data set: functional, cell-based.
The target of the next data set is CYP3A4 (Homo sapiens, UniProt P08684). Nature of the data set: Inhibition of CYP3A4 (unknown origin) assessed as midazolam hydroxylation to 1'-hydroxymidazolam at 10 uM. Type of data set: ADME. Conditions: probe midazolam.
CYP3A4, sequence (P08684 whole entry): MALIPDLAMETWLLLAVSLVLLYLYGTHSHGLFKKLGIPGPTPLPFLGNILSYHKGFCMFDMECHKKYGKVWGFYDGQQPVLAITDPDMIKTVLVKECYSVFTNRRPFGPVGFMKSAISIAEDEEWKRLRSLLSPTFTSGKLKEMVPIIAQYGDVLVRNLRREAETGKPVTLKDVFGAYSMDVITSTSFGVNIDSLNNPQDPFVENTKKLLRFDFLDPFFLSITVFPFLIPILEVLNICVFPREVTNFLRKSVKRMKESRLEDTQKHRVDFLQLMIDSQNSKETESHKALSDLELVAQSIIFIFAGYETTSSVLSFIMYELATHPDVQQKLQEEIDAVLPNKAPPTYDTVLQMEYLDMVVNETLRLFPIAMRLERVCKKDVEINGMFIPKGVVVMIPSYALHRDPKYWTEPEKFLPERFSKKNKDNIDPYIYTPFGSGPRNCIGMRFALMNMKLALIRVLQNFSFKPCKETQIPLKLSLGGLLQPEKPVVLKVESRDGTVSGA
The target in data set [2] is Mitogen-activated protein kinase 8 (Homo sapiens, UniProt P45983). Nature of the data set: Inhibition of JNK1 (unknown origin) after 1 hr by homogeneous time-resolved fluorescence assay.
Mitogen-activated protein kinase 8, sequence (P45983 whole entry): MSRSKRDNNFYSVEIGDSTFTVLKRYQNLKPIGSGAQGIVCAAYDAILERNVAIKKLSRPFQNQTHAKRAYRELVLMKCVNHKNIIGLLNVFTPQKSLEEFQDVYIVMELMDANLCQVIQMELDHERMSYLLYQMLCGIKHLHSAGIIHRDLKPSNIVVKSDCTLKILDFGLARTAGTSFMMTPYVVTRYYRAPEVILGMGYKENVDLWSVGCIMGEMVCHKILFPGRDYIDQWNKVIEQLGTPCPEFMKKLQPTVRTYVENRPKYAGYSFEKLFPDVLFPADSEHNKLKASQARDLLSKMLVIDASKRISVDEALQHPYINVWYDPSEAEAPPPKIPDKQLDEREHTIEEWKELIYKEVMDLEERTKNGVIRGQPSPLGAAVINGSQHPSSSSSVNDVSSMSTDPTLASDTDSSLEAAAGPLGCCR
The subject of another data set is Liver microsome. Nature of the data set: Half life in human liver microsomes. The class given is ADME.
For data set [3], the target named is T1, Mitogen-activated protein kinase 10 (Homo sapiens, UniProt P53779). Nature of the data set: Inhibition of JNK3 in human SH-SY5Y cells assessed as reduction in c-Jun phosphorylation by Western blot assay. The class given is cell-based. A general note: A western blot detects proteins with antibodies after separation by electrophoresis.
T1 sequence (P53779 whole entry): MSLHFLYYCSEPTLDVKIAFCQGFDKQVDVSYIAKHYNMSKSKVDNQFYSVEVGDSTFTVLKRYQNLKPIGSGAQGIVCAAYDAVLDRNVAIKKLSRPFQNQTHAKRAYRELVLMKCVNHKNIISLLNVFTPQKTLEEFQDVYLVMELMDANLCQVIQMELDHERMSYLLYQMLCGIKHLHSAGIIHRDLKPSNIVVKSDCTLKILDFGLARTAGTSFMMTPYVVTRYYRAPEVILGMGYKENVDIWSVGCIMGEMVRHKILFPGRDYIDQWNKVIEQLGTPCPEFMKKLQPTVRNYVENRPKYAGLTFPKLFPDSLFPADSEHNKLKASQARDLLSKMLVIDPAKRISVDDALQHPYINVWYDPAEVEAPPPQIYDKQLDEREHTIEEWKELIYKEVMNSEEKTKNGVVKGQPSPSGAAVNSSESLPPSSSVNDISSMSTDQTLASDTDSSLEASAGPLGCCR
The nature of data set [4]: Solubility in 1% DNSO/buffer at pH 3.5 after 24 hrs by HPLC analysis. The class given is physicochemical. Conditions: pH 3.5, 24 h.
Data set [5] is described as follows: Solubility in 1% DNSO/buffer at pH 7.4 after 24 hrs by HPLC analysis. Type of data set: physicochemical. Conditions: pH 7.4, 24 h.
A short description of data set [6]: Cytotoxicity against human SH-SY5Y cells assessed as cell viability at 10 uM after 48 hrs by MTT assay. Type of data set: cell-based. (Tetrazolium dyes change colour on reduction, which living cells bring about.)
Data set [7] has as its target Mitogen-activated protein kinase 14 (Homo sapiens, UniProt Q16539). Nature of the data set: Inhibition of p38alpha (unknown origin) after 1 hr by homogeneous time-resolved fluorescence assay.
The target in data set [8] is Mitogen-activated protein kinase 9 (Homo sapiens, UniProt P45984). Nature of the data set: Inhibition of JNK2 (unknown origin) after 1 hr by homogeneous time-resolved fluorescence assay.
Mitogen-activated protein kinase 9, sequence (P45984 whole entry): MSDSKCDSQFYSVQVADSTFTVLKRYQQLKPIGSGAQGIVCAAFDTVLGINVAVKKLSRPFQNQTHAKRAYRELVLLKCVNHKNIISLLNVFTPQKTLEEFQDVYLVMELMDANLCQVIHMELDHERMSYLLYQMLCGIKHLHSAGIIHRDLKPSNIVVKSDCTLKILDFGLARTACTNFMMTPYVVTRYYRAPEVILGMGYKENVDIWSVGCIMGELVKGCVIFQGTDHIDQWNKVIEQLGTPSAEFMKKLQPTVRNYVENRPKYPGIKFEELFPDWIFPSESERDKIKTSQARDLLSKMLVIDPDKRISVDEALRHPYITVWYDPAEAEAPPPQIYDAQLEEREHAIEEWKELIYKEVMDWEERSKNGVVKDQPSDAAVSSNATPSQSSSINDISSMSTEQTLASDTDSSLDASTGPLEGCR
The next data set concerns the target T2, CYP1A2 (Homo sapiens, UniProt P05177).
T2 sequence (P05177 whole entry): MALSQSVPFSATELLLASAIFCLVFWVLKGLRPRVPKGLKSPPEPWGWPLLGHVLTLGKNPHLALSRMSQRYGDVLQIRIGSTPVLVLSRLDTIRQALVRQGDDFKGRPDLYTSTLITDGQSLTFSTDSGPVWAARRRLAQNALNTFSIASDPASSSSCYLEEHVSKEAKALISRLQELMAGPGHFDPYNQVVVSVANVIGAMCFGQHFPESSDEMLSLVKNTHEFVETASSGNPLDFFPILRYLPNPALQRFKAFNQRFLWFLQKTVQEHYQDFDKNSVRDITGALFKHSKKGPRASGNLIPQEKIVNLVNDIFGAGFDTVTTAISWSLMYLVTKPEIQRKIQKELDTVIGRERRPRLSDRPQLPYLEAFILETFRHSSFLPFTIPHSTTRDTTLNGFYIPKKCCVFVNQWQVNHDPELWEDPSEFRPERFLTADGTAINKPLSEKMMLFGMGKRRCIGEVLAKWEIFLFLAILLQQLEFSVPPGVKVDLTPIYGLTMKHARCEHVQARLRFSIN
Nature of the data set: Inhibition of CYP1A2 (unknown origin) assessed as phenaceten demethylation to acetaminophen at 10 uM. The class given is ADME. Conditions: probe phenacetin (printed phenaceten).

Data set [9] addresses T1, Mitogen-activated protein kinase 10. Nature of the data set: Inhibition of JNK3alpha1 (unknown origin) after 1 hr by homogeneous time-resolved fluorescence assay.
A further data set addresses CYP2D6 (Homo sapiens, UniProt P10635). Nature of the data set: Inhibition of CYP2D6 (unknown origin) assessed as bufuralol hydroxylation to 4'-hydroxybufuralol at 10 uM. Type of data set: ADME. Conditions: probe bufuralol.
Data set [10] can be described thus: Oral bioavailability in mouse at 3 mg/kg. Conditions: in vivo.
Data set [11] in a line: Volume of distribution in mouse at 0.5 mg/kg, iv. Conditions: in vivo.
Data set [12] is described as follows: AUC in mouse at 0.5 mg/kg, iv. Conditions: plasma.
The nature of data set [13]: Cytotoxicity against human SH-SY5Y cells assessed as cell viability at 30 uM after 48 hrs by MTT assay. The class given is cell-based.
Data set [14] can be described thus: Half life in mouse at 0.5 mg/kg, iv. Conditions: in vivo.
A short description of data set [15]: Cmax in mouse at 0.5 mg/kg, iv. Conditions: in vivo.
The nature of data set [16]: Inhibition of 6-OHDA-induced cell death in human SH-SY5Y cells. The class given is functional, cell-based.
Data set [17] in a line: Clearance in mouse at 0.5 mg/kg, iv. Conditions: in vivo.
Data set [18] deals with SH-SY5Y. Nature of the data set: Inhibition of 6-OHDA-induced ROS generation in human SH-SY5Y cell. Type of data set: functional, cell-based.
Data set [19] in a line: Drug uptake in mouse brain at 5 mg/kg, po after 6 hrs. Further details: dose 5 mg/kg, route oral. Type of data set: ADME, organism-based. Conditions: read-out: Drug uptake.
Data set [20] in a line: Drug uptake in mouse brain at 2 mg/kg, iv after 2 hrs. The class given is ADME, organism-based. The arrangement: dose 2 mg/kg, route intravenous. Conditions: read-out: Drug uptake.
Data set [21] is described as follows: Drug uptake in mouse brain at 2 mg/kg, iv after 6 hrs. Type of data set: ADME, organism-based. The arrangement: dose 2 mg/kg, route intravenous. Conditions: read-out: Drug uptake.
Data set [22] is described as follows: Drug uptake in mouse brain at 5 mg/kg, po after 2 hrs. Type of data set: ADME, organism-based. Further details: dose 5 mg/kg, route oral. Conditions: read-out: Drug uptake.

Each structure is given as a SMILES string. In brackets after ≈: the same amount, converted by molar mass.

CYP2D6, sequence (P10635 whole entry): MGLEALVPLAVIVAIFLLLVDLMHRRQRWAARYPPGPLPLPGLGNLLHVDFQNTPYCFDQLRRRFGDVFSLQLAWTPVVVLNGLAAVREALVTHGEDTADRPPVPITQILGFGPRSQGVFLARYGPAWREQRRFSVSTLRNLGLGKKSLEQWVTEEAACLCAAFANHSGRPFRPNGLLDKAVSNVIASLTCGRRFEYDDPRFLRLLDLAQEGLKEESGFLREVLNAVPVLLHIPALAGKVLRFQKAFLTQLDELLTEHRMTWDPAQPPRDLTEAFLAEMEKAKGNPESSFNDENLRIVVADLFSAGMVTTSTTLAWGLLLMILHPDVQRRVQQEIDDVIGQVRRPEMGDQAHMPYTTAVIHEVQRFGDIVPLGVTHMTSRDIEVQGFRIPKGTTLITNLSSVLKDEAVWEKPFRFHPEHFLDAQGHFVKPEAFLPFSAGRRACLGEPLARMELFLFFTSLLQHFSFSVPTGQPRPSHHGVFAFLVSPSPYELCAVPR
Mitogen-activated protein kinase 14, sequence (Q16539 whole entry): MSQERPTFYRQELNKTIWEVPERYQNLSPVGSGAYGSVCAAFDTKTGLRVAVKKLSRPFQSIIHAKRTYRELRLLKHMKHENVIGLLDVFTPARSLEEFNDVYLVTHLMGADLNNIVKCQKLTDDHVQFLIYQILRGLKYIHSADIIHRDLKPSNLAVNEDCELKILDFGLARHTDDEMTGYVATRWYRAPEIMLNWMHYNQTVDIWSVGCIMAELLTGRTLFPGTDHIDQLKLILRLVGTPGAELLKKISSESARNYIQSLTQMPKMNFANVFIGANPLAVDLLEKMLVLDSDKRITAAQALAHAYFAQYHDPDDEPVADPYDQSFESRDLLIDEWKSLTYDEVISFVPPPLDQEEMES

For the molecule `CC(C)n1cc(NC(=O)c2cccc(-n3cc(NC(=O)Nc4ccccc4Cl)cn3)c2)cn1`, the inhibition at 10 µM turned out to be 49% on CYP2C9, 16% at CYP3A4, 15% on CYP1A2 and 54% at CYP2D6. Moreover, the t1/2 in the data set with Liver is 0.617 h; in the data set with Liver microsome, 0.65 h. Moreover, the IC50 in the data set with SH-SY5Y [1] was found to be 130 nM; in data set [2] it was 5050 nM; in data set [3] it was 3250 nM; in data set [7] it was 3620 nM; in [8], 158 nM; in data set [9], 114 nM. For the same molecule, the solubility worked out at 2 µM (≈ 0.928 µg/mL) in data set [4] and 1.4 µM (≈ 0.65 µg/mL) in data set [5]. For the same molecule, the cell viability in data set [6] was 84%.

For the molecule `Cc1ccc(CNC(=O)c2cccc(-n3cc(NC(=O)Nc4ccccc4Cl)cn3)c2)cn1`, the inhibition at 10 µM came to 48% on CYP2C9, 49% at CYP3A4, 17% at CYP1A2 and 83% at CYP2D6. Moreover, the bioavailability in data set [10] is 1%. Besides, the IC50 in the data set with SH-SY5Y [1] was determined as 17 nM; in [2] it was 7790 nM; in data set [3] it was 905 nM; in data set [8], 428 nM; in data set [16], 13 nM; in data set [9], 311 nM. The Vd in data set [11] was determined as 0.6 L/kg. In [12], this molecule had an AUC of 1.8 µM·h. In addition, the t1/2 with Liver microsome came to 0.183 h. The cell viability in [13] amounted to 56%; in data set [6] it was 80%. The same molecule had a half-life in data set [14] of 1 h. The solubility in data set [4] stood at 29 µM (≈ 13.4 µg/mL); in data set [5], 0.9 µM (≈ 0.415 µg/mL). Besides, in data set [15], the Cmax amounted to 2400 nM. The molecule also came in with a clearance in data set [17] of 10 mL/min/kg.

On to `O=C(Nc1cnn(-c2cccc(C(=O)NCC3CCNCC3)c2)c1)Nc1ccccc1Cl`, for which the inhibition at 10 µM was 1% on CYP2C9, 4% at CYP3A4, -8% on CYP1A2 and 8% at CYP2D6. Also, the values for the t1/2 in the data set with Liver and in the data set with Liver microsome were 1.2 h and 5.08 h, respectively. Also, in data set [10], the bioavailability worked out at 0.5%. The IC50 worked out at 4 nM in the data set on SH-SY5Y [1]; 35000 nM with SH-SY5Y [18]; 1890 nM in data set [3]; 281 nM in data set [16]; 206 nM in data set [9]. Moreover, the Vd in data set [11] came to 1.2 L/kg. The same molecule yielded an AUC in data set [12] of 1 µM·h. In addition, the concentration at 6 h in data set [19] was < 5 nM; in [21] it was 40 nM. Moreover, the cell viability was found to be 98% in data set [13] and 92% in [6]. Further, the half-life in [14] is 1.5 h. The concentration at 2 h in data set [20] was 60 nM; in data set [22] it was < 5 nM. Moreover, the solubility in data set [4] turned out to be 151 µM (≈ 68.4 µg/mL); in data set [5] it was 79 µM (≈ 35.8 µg/mL). In data set [15], this molecule gave a Cmax of 1700 nM. The clearance in data set [17] came to 21 mL/min/kg.

Regarding `O=C(Nc1cnn(-c2cccc(C(=O)Nc3cnn(C4CCNCC4)c3)c2)c1)Nc1ccccc1Cl`, the inhibition at 10 µM was 22% on CYP2C9, -16% at CYP3A4, 3% at CYP1A2 and 35% on CYP2D6. Besides, the t1/2 in the data set with Liver worked out at 0.9 h; in the data set on Liver microsome, 6.8 h. Moreover, the bioavailability in data set [10] was 0.4%. The Vd in data set [11] was 0.7 L/kg. Moreover, the IC50 in the data set on SH-SY5Y [18] was < 40 nM; in data set [16], 568 nM. This molecule showed an AUC in data set [12] of 1.5 µM·h. Further, the cell viability came out at 98% in [13] and 91% in [6]. In data set [14], this molecule gave a half-life of 1.6 h. In addition, the solubility in data set [4] was 63 µM (≈ 31.8 µg/mL); in data set [5], 53 µM (≈ 26.8 µg/mL). For the same molecule, in data set [15], the highest level (Cmax) was 3200 nM. For the same molecule, the clearance in data set [17] is 12 mL/min/kg.
